Experimental data as given in patent publication US9234000B2, “Benzylamine derivatives as inhibitors of plasma kallikrein” (KalVista Pharmaceuticals Limited, priority 2011, dated 2016).
Where two headings read alike, the source gives them in different places.

Experiments:
Human plasma kallikrein = Human plasma kallikrein (Homo sapiens (Human), UniProt P03952); experiment: Determination of the IC50 for plasma kallikrein; format: biochemical; details: 37° C., read-out: IC50 (human PKal)
Description: Determination of the IC50 for Plasma Kallikrein
(§1) Plasma kallikrein inhibitory activity in vitro was determined using standard published methods (see e.g. Johansen et al., Int. J. Tiss. Reac. 1986, 8, 185; Shori et al., Biochem. Pharmacol., 1992, 43, 1209; Stiirzebecher et al., Biol. Chem. Hoppe-Seyler, 1992, 373, 1025). Human plasma kallikrein (Protogen) was incubated at 37° C. with the fluorogenic substrate H-DPro-Phe-Arg-AFC and various concentrations of the test compound. Residual enzyme activity (initial rate of reaction) was determined by measuring the change in optical absorbance at 410 nm and the IC50 value for the test compound was determined.

Human KLK1 = Human KLK1 (Homo sapiens (Human), UniProt P06870); experiment: Determination of the IC50 for KLK1; format: biochemical; details: Human KLK1, 37° C., substrate H-DVal-Leu-Arg-AFC; Table 13
Description: Determination of the IC50 for KLK1
as §1, with “KLK1” for “Plasma kallikrein”, “Stürzebecher” for “Stiirzebecher”, “KLK1 (Callbiochem)” for “plasma kallikrein (Protogen)”, “H-DVal-Leu-Arg-AFC” for “H-DPro-Phe-Arg-AFC”

[1] = fluorogenic substrate H-DPro-Phe-Arg-AFC

Human plasma kallikrein, sequence (P03952 391-638): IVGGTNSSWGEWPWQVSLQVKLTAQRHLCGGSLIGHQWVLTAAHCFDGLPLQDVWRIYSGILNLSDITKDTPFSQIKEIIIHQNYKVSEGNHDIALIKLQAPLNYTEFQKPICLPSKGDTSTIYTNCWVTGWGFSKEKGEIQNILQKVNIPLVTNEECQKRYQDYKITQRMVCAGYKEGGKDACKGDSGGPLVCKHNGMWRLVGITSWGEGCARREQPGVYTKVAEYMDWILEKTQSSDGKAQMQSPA
Human plasma kallikrein, sequence (P03952 20-390 partner): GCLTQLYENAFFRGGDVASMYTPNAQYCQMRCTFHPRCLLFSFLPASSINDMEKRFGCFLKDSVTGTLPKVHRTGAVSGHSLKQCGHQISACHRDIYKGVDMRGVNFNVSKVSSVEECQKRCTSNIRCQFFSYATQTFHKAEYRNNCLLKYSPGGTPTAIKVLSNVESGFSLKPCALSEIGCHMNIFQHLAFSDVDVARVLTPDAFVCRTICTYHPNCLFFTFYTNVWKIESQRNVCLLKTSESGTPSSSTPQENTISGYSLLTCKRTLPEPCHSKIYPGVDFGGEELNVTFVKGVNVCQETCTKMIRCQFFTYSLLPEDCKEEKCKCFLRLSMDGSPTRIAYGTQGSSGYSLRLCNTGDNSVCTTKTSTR
Human KLK1, sequence (P06870 25-262): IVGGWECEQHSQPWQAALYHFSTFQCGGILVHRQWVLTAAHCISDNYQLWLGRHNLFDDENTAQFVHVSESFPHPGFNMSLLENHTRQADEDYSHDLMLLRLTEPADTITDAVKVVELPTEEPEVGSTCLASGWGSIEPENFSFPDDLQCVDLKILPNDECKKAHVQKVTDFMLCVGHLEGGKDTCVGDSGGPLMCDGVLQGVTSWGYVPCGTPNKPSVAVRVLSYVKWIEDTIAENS

Row | SMILES | IC50 (Human plasma kallikrein; substrate H-DPro-Phe-Arg-AFC) [nM] | IC50 (Human KLK1) [nM] | IC50 (Human plasma kallikrein; [1]) [nM]
1 | CCOc1ccc(C[C@@H](NC(=O)NCc2ccccc2)C(=O)N[C@@H](Cc2ccccc2)C(=O)NCc2ccc(CN)cc2)cc1 [Example 68, (R)-N-[(S)-1-(4-Aminomethyl-benzylcarbamoyl)-2-phenyl-ethyl]-2-(3-benzyl-ureido)-3-(4-ethoxy-phenyl)-propionamide] | 861 | > 10000 | –
2 | CCOc1ccc(C[C@@H](NC(=O)c2ccccc2)C(=O)N[C@@H](Cc2ccc(Cl)cc2)C(=O)NCc2ccc(CN)cc2)cc1 [Example 142, N-[(R)-1-[(S)-1-(4-Aminomethyl-benzylcarbamoyl)-2-(4-chloro-phenyl)-ethylcarbamoyl]-2-(4-ethoxy-phenyl)-ethyl]-benzamide] | 96 | > 10000 | –
3 | CCOc1ccc(C[C@@H](NC(=O)CC)C(=O)N[C@@H](Cc2ccccn2)C(=O)NCc2ccc(CN)cc2)cc1 [Example 166, (R)-N-[(S)-1-(4-Aminomethyl-benzylcarbamoyl)-2-pyridin-2-yl-ethyl]-3-(4-ethoxy-phenyl)-2-propionylamino-propionamide] | 262 | > 10000 | –
4 | CCOc1ccc(C[C@@H](NC(=O)c2sccc2OC)C(=O)N[C@@H](Cc2ccccc2)C(=O)NCc2ccc(CN)cc2)cc1 [Example 122, 3-Methoxy-thiophene-2-carboxylic acid [(R)-1-[(S)-1-(4-aminomethyl-benzylcarbamoyl)-2-phenyl-ethylcarbamoyl]-2-(4-ethoxy-phenyl)-ethyl]-amide] | 519 | 4800 | –
5 | CCOc1ccc(C[C@@H](NC(=O)c2ccc(Cl)nc2Cl)C(=O)N[C@@H](Cc2ccccc2)C(=O)NCc2ccc(CN)cc2)cc1 [Example 106, N-[(R)-1-[(S)-1-(4-Aminomethyl-benzylcarbamoyl)-2-phenyl-ethylcarbamoyl]-2-(4-ethoxy-phenyl)-ethyl]-2,6-dichloro-nicotinamide] | 256 | 8400 | –
6 | CCOc1ccc(C[C@@H](NC(=O)c2cc(C)nc(Cl)c2)C(=O)N[C@@H](Cc2ccccc2)C(=O)NCc2ccc(CN)cc2)cc1 [Example 110, N-[(R)-1-[(S)-1-(4-Aminomethyl-benzylcarbamoyl)-2-phenyl-ethylcarbamoyl]-2-(4-ethoxy-phenyl)-ethyl]-2-chloro-6-methyl-isonicotinamide] | 598 | > 10000 | –
7 | CCOc1ccc(C[C@@H](NC(=O)c2cncc(OC)c2)C(=O)N[C@@H](Cc2ccccc2)C(=O)NCc2ccc(CN)cc2)cc1 [Example 121, N-[(R)-1-[(S)-1-(4-Aminomethyl-benzylcarbamoyl)-2-phenyl-ethylcarbamoyl]-2-(4-ethoxy-phenyl)-ethyl]-5-methoxy-nicotinamide] | 310 | > 10000 | –
8 | CCCCCCNC(=O)N[C@H](Cc1ccc(OCC)cc1)C(=O)N[C@@H](Cc1ccccc1)C(=O)NCc1ccc(CN)cc1 [Example 78, (R)-N-[(S)-1-(4-Aminomethyl-benzylcarbamoyl)-2-phenyl-ethyl]-3-(4-ethoxy-phenyl)-2-(3-hexyl-ureido)-propionamide] | 10000 | > 10000 | –
9 | NCc1ccc(CNC(=O)[C@H](Cc2ccccc2)NC(=O)[C@@H](Cc2ccc(OCc3ccc(F)cc3)cc2)NC(=O)c2ccccc2)cc1 [Example 130, N-{(R)-1-[(S)-1-(4-Aminomethyl-benzylcarbamoyl)-2-phenyl-ethylcarbamoyl]-2-[4-(4-fluoro-benzyloxy)-phenyl]-ethyl}-benzamide] | 2490 | > 10000 | –
10 | CCOc1ccc(C[C@@H](NC(=O)c2ccccc2)C(=O)N[C@@H](Cc2cccc(F)c2)C(=O)NCc2ccc(CN)cc2)cc1 [Example 149, N-[(R)-1-[(S)-1-(4-Aminomethyl-benzylcarbamoyl)-2-(3-fluoro-phenyl)-ethylcarbamoyl]-2-(4-ethoxy-phenyl)-ethyl]-benzamide] | 91 | > 10000 | –
11 | CCOc1ccc(C[C@H](C(=O)N[C@@H](Cc2ccccc2)C(=O)NCc2ccc(CN)cc2)N(C)C)cc1 [Example 13, (R)-N-[(S)-1-(4-Aminomethyl-benzylcarbamoyl)-2-phenyl-ethyl]-2-dimethylamino-3-(4-ethoxy-phenyl)-propionamide] | – | – | 10000
12 | CCOc1ccc(C[C@@H](NC(=O)c2ccc3nc(C)ccc3c2)C(=O)N[C@@H](Cc2ccccc2)C(=O)NCc2ccc(CN)cc2)cc1 [Example 114, 2-Methyl-quinoline-6-carboxylic acid [(R)-1-[(S)-1-(4-aminomethyl-benzylcarbamoyl)-2-phenyl-ethylcarbamoyl]-2-(4-ethoxy-phenyl)-ethyl]-amide] | 427 | > 10000 | –
13 | CCOc1ccc(C[C@@H](NC(=O)c2sc(C)nc2C)C(=O)N[C@@H](Cc2ccccc2)C(=O)NCc2ccc(CN)cc2)cc1 [Example 111, 2,4-Dimethyl-thiazole-5-carboxylic acid [(R)-1-[(S)-1-(4-aminomethyl-benzylcarbamoyl)-2-phenyl-ethylcarbamoyl]-2-(4-ethoxy-phenyl)-ethyl]-amide] | 58 | > 10000 | –
14 | CCOc1ccc(C[C@@H](NC(=O)c2cc3ccccc3s2)C(=O)N[C@@H](Cc2ccccc2)C(=O)NCc2ccc(CN)cc2)cc1 [Example 83, Benzo[b]thiophene-2-carboxylic acid[(R)-1-[(S)-1-(4-aminomethyl-benzylcarbamoyl)-2-phenyl-ethylcarbamoyl]-2-(4-ethoxy-phenyl)-ethyl]-amide] | 254 | > 10000 | –
15 | CCOc1ccc(C[C@@H](NC(=O)c2ccccc2Cl)C(=O)N[C@@H](Cc2ccccc2)C(=O)NCc2ccc(CN)cc2)cc1 [Example 89, N-[(R)-1-[(S)-1-(4-Aminomethyl-benzylcarbamoyl)-2-phenyl-ethylcarbamoyl]-2-(4-ethoxy-phenyl)-ethyl]-2-chloro-benzamide] | 99 | 3700 | –
16 | CCOc1ccc(C[C@@H](NC(=O)CCc2ccccc2)C(=O)N[C@@H](Cc2ccccc2)C(=O)NCc2ccc(CN)cc2)cc1 [Example 86, (S)-N-(4-Aminomethyl-benzyl)-2-[(R)-3-(4-ethoxy-phenyl)-2-(3-phenyl-propionylamino)-propionylamino]-3-phenyl-propionamide] | 423 | > 10000 | –
17 | CCOc1ccc(C[C@@H](N)C(=O)N[C@@H](C(=O)NCc2ccc(CN)cc2)[C@@H](O)c2ccccc2)cc1 [Example 60, (R)-2-Amino-N-[(1R,2S)-1-(4-aminomethyl-benzylcarbamoyl)-2-hydroxy-2-phenyl-ethyl]-3-(4-ethoxy-phenyl)-propionamide] | – | – | 10000
18 | CCOc1ccc(C[C@@H](NC(=O)CC)C(=O)N[C@@H](C(=O)NCc2ccc(CN)cc2)[C@@H](O)c2ccccc2)cc1 [Example 62, (2R,3S)-N-(4-Aminomethyl-benzyl)-2-[(R)-3-(4-ethoxy-phenyl)-2-propionylamino-propionylamino]-3-hydroxy-3-phenyl-propionamide] | – | – | ≥ 10000
19 | CCOc1ccc(C[C@@H](NC(=O)CC)C(=O)N(CC)[C@@H](Cc2ccccc2)C(=O)NCc2ccc(CN)cc2)cc1 [Example 65, (S)-N-(4-Aminomethyl-benzyl)-2-{[(R)-3-(4-ethoxy-phenyl)-2-propionylamino-propionyl]-ethyl-amino}-3-phenyl-propionamide] | – | – | ≥ 10000
